Tests used:
[1] = target: T1, GST-PPARγ-LBD fusion protein (Mus musculus, UniProt P37238); assay: PPARγ radioligand binding assay (SPA)
T1 construct: PPARγ (aa 174 to 476); made in house; host or cells: E. coli BL21(pLysS)
T1 sequence (P37238 204-505): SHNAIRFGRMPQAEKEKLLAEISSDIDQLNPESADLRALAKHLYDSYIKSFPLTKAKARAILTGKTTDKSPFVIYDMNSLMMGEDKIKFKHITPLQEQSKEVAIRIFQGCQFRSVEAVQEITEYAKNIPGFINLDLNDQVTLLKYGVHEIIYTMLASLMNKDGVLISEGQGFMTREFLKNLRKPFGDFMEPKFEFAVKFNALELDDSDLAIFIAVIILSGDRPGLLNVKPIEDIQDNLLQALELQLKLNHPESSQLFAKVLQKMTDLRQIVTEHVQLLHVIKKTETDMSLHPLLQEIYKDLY
Source text: (§1) Full-length cDNA clones for humans PPARδ and PPARα and mouse PPARγ were obtained by RT-PCR from human adipose and mouse liver cRNA, respectively, cloned into plasmid vectors and verified by DNA sequencing. Bacterial and mammalian expression vectors were constructed to produce glutathione-s-transferase (GST) and Gal4 DNA binding domain proteins fused to the ligand binding domains (LBD) of PPARδ (aa 139 to 442), PPARγ (aa 174 to 476) and PPARα (aa 167 to 469). To accomplish this, the portions of the cloned sequences encoding the LBDs were amplified from the full-length clones by PCR and then subcloned into the plasmid vectors. Final clones were verified by DNA sequence analysis.
(§2) Induction, expression, and purification of GST-LBD fusion proteins were performed in E. coli strain BL21(pLysS) cells by standard methods (Ref: Current Protocols in Molecular Biology, Wiley Press, edited by Ausubel et al.).
(§3) PPARγ receptor binding was assayed in TKE50 (50 mM Tris-HCl, pH 8, 50 mM KCl, 2 mM EDTA, 0.1 mg/ml fatty acid-free BSA and 10 mM DTT). […] All binding assays were performed in 96 well plates and the amount of bound ligand measured on a Packard TopCount using OptiPlates (Packard). Nonspecific binding was determined in the presence of 10^−4 M unlabelled compound. […]

[2] = target: T2, pFA-PPARα-LBD in BHK21 cells (Homo sapiens, UniProt Q07869); assay: Luciferase transcriptional reporter gene assay (transactivation), PPARα; type: cell-based; conditions: for EC50: 24 hours with compound; for PPARα maximal activation (% of reference compound): reference PPARα compound set to 100%
T2 construct: PPARα (aa 167 to 469); expressed in transfected cells; host or cells: BHK21 (ATCC CCL10)
T2 sequence (Q07869 167-468 limits assumed): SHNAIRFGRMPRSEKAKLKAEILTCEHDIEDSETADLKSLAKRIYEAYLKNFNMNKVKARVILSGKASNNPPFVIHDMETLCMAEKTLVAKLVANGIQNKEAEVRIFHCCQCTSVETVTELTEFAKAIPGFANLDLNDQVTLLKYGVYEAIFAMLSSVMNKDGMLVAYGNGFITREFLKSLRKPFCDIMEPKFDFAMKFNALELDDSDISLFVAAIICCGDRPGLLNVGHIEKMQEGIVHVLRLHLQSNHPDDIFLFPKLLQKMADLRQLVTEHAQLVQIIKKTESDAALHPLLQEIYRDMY
Source text: as §1
(§4) Baby hamster kidney cells (BHK21 ATCC CCL10) were grown in DMEM medium containing 10% FBS at 37° C. in a […]:5% CO2 atmosphere. Cells were seeded in 6 well plates at a density of 10^5 cells/well and then batch-transfected with either the pFA-PPARδ-LBD, pFA-PPARγ-LBD or pFA-PPARα-LBD expression plasmids plus a reporter plasmid (to monitor transfection efficiency). […] Six hours following transfection, the cells were harvested by trypsinization and seeded in 96 well plates at a density of 10^4 cells/well. After 24 hours the medium was removed and replaced with 100 ul of phenol red-free medium containing the corresponding test compounds or control ligands (at a final DMSO concentration of 0.1%). Following incubation of the cells for 24 hours with compounds, 50 μl of the supernatant was discarded and then 50 μl of Luciferase Constant—Light Reagent (Roche Molecular Biochemicals) was added to lyse the cells and initiate the luciferase reaction. Luminescence for luciferase was measured in a Packard TopCount. Transcriptional activation in the presence of a test substance was expressed as fold-activation over cells incubated in the absence of the substance. The signals were normalized against plate-specific controls (DMSO alone) and the fold-stimulation of luciferase activity observed with specific and selective PPARα((2(S)-2-(2-benzoyl-phenylamino)-3-{4-[2-(5-methyl-2-phenyl-oxazol-4-yl)-ethoxy]-phenyl}-propionic acid), PPARγ (Rosiglitazone) and PPARδ ({2-methyl-4-[4-methyl-2-(4-trifluoromethyl-phenyl)-thiazol-5-ylmethylsulfanyl]-phenoxy}-acetic acid) reference compounds was set to 100%. EC50 values were calculated using the XLfit program (ID Business Solutions Ltd. UK).

[3] = target: T3, PPARδ receptor (GST-PPAR-LBD fusion protein) (Homo sapiens, UniProt Q03181); assay: PPARδ radioligand binding assay (SPA)
T3 construct: PPARδ (aa 139 to 442); made in house; host or cells: E. coli BL21(pLysS)
T3 sequence (Q03181 139-441 limits assumed): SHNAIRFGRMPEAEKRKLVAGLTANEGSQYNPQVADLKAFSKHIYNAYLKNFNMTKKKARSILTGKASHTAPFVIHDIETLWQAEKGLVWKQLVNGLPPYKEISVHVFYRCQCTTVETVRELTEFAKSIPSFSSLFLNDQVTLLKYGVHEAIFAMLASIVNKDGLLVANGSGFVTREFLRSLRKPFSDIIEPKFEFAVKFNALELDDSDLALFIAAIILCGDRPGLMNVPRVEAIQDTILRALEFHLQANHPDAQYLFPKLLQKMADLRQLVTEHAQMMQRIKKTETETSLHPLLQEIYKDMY
Source text: as §1, §2
PPARδ receptor binding was assayed in HNM10 (50 mM Hepes, pH 7.4, 10 mM NaCl, 5 mM MgCl2, 0.15 mg/ml fatty acid-free BSA and 15 mM DTT). […] Radioligand was added and the reaction incubated at RT for 1 h and scintillation proximity counting performed in the presence of test compounds was determined. All binding assays were performed in 96 well plates and the amount of bound ligand was measured on a Packard TopCount using OptiPlates (Packard). […]

[4] = target: T4, GST-PPARα-LBD fusion protein (Homo sapiens, UniProt Q07869); assay: PPARα radioligand binding assay (SPA)
T4 construct: PPARα (aa 167 to 469); made in house; host or cells: E. coli BL21(pLysS)
T4 sequence (Q07869 167-468 limits assumed): T2 sequence (Q07869 167-468 limits assumed)
Source text: as §1, §2
as §3, with “PPARαreceptor” for “PPARγ receptor”

[5] = target: T5, pFA-PPARδ-LBD in BHK21 cells (Homo sapiens, UniProt Q03181); assay: Luciferase transcriptional reporter gene assay (transactivation), PPARδ; type: cell-based; conditions: for EC50: 24 hours with compound; for PPARδ efficacy relative to reference compound: reference PPARδ compound set to 100%
T5 construct: PPARδ (aa 139 to 442); expressed in transfected cells; host or cells: BHK21 (ATCC CCL10)
T5 sequence (Q03181 139-441 limits assumed): T3 sequence (Q03181 139-441 limits assumed)
Source text: as §1, §4

| IC50 [1] | EC50 [2] | PPARα maximal activation (% of reference compound) [2] | IC50 [3] | IC50 [4] | EC50 [5] | PPARδ efficacy relative to reference compound [5] | Structure (SMILES) |
| --- | --- | --- | --- | --- | --- | --- | --- |
| ≥ 10000 nM | 160 nM | 120% | 222 nM | 212 nM | 96 nM | 140% | Cc1cc(OCc2cc(-c3ccc(OC(F)(F)F)cc3)nn2CC(F)(F)F)ccc1OC(C)(C)C(=O)O [Example 6, 2-Methyl-2-{2-methyl-4-[2-(2,2,2-trifluoro-ethyl)-5-(4-trifluoromethoxy-phenyl)-2H-pyrazol-3-ylmethoxy]-phenoxy}-propionic acid] |
| ≥ 10000 nM | 380 nM | 100% | 144 nM | 166 nM | 200 nM | 59% | Cc1cc(OCc2cc(-c3ccc(OC(F)(F)F)cc3)nn2C)ccc1OC(C)(C)C(=O)O [Example 1, 2-Methyl-2-{2-methyl-4-[2-methyl-5-(4-trifluoromethoxy-phenyl)-2H-pyrazol-3-ylmethoxy]-phenoxy}-propionic acid] |
